Common to all, as to assay: combination Emax (second highest fraction inhibited in the dose matrix, 72 h); higher = more inhibition; extreme values may be limits of the assay
Experiment [1] concerns CAL-39 (Other Solid Carcinomas). Put shortly:
(§1)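 After 24 hours at 37°C and 5% CO2 in 1536-well plates, cells in DMEM/F12 or RPMI plus 10% FBS received two-drug dose matrices for 72 hours. Viability came from CellTiter-Glo 2.0 luminescence and was scaled as inhibition, anchored at 0 by vehicle wells and at 1 by blank wells. Combination Emax is taken as the second-highest inhibition in the matrix, and Bliss excess as the observed combination effect less EA + EB − EA·EB, with EA and EB the single-agent effects.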

Experiment [2] relates to D-283MED (Other Solid Carcinomas). Put shortly:
as §1

The next experiment deals with D-392MG (Glioblastoma). In a few lines:
as §1

The test system of experiment [3] is ETK-1 (Biliary Tract Carcinoma). Put shortly: as §1
A further experiment concerns H4 (Low Grade Glioma). In a few lines: as §1
Experiment [4] concerns HCC1143 (Breast Carcinoma). Put shortly: as §1
In experiment [5] the test system is HCT-116 (Colorectal Carcinoma). Put shortly: as §1
Experiment [6] relates to HLE (Hepatocellular Carcinoma). Put shortly:
as §1

In experiment [7] the test system is HOP-92 (Non-Small Cell Lung Carcinoma). Put shortly: as §1
Experiment [8] relates to KG-1 (Acute Myeloid Leukemia). In a few lines:
as §1

In another experiment the test system is MCF7 (Breast Carcinoma). In a few lines: as §1
Experiment [9] deals with NCI-H1688 (Small Cell Lung Carcinoma). Put shortly:
as §1

Experiment [10] deals with PA-TU-8902 (Pancreatic Carcinoma). In a few lines: as §1
Experiment [11] has as its system SNG-M (Endometrial Carcinoma). In a few lines:
as §1

The test system of experiment [12] is SNU-61 (Colorectal Carcinoma). In a few lines:
as §1

Experiment [13] has as its system SW948 (Colorectal Carcinoma). Put shortly: as §1
A further experiment relates to Saos-2 (Osteosarcoma). In a few lines: as §1
Experiment [14] has as its system TYK-nu (Ovarian Carcinoma). Put shortly: as §1
The test system of experiment [15] is U-118-MG (Low Grade Glioma). Put shortly:
as §1

For experiment [16], the system named is YT (Other Blood Carcinomas). In a few lines: as §1

Molecules are shown by their SMILES.

Regarding `NC1(C(=O)N[C@@H](CCO)c2ccc(Cl)cc2)CCN(c2ncnc3[nH]ccc23)CC1` [Capivasertib] + CC(C)n1c(=O)n(C)c2cnc3cc(F)c(-c4ccc(OCCCN5CCCCC5)nc4)cc3c21 [AZD1390] (first compound max 10 µM, 7x7, partner max 0.3 µM), the “combination Emax” value in experiment [1] is 0.457; in experiment [2], 0.475; with D-392MG (Glioblastoma), 0.228; in experiment [3], 0.331; in the experiment with H4 (Low Grade Glioma) it was 0.515; in experiment [4], 0.174. For the same compound, the “combination Emax” value in [5] was 0.373; in [6], 0.194; in experiment [7], 0.376; in experiment [8] it was 0.241; in the experiment with MCF7 (Breast Carcinoma) it was 0.459; in experiment [9] it was 0.296. Also, the “combination Emax” value in experiment [10] amounted to 0.278; in experiment [11], 0.29; in [12], 0.146; in [13] it was 0.575; in the experiment with Saos-2 (Osteosarcoma), 0.473; in experiment [14] it was 0.309. Besides, the entries for the “combination Emax” value in experiment [15] and in experiment [16] were 0.47 and 0.336, respectively.
Regarding `NC1(C(=O)N[C@@H](CCO)c2ccc(Cl)cc2)CCN(c2ncnc3[nH]ccc23)CC1` [Capivasertib] + CCN(CCO)CCCOc1ccc2c(Nc3cc(CC(=O)Nc4cccc(F)c4)[nH]n3)ncnc2c1 [AZD2811] (first compound max 10 µM, 7x7, partner max 1 µM), the “combination Emax” value in [1] worked out at 0.55; in experiment [2] it was 0.737; with D-392MG (Glioblastoma), 0.332; in experiment [3] it was 0.381; in the experiment with H4 (Low Grade Glioma) it was 0.58; in experiment [4], 0.287. The “combination Emax” value in experiment [5] came to 0.587; in experiment [6], 0.33; in experiment [7], 0.458; in experiment [8], 0.458; with MCF7 (Breast Carcinoma), 0.639; in [9], 0.309. Moreover, the “combination Emax” value in [10] was determined as 0.348; in experiment [11], 0.363; in experiment [12] it was 0.242; in [13], 0.769; in the experiment with Saos-2 (Osteosarcoma), 0.586; in experiment [14], 0.357. For the same compound, the results for the “combination Emax” value in [15] and in experiment [16] were 0.603 and 0.456, respectively.
As to `NC1(C(=O)N[C@@H](CCO)c2ccc(Cl)cc2)CCN(c2ncnc3[nH]ccc23)CC1` [Capivasertib] + COc1nnc2ccc(N3CCC(c4ccc(OCCN5CCN(C)C(=O)[C@H]5C)cc4)CC3)nn12 [AZD5153] (first compound max 10 µM, 7x7, partner max 1 µM), the “combination Emax” value in [1] came to 0.787; in [2] it was 0.771; in the experiment on D-392MG (Glioblastoma), 0.512; in [3], 0.503; with H4 (Low Grade Glioma) it was 0.744; in experiment [4], 0.325. The “combination Emax” value in experiment [5] turned out to be 0.813; in experiment [6], 0.389; in experiment [7], 0.405; in [8], 0.852; in the experiment with MCF7 (Breast Carcinoma) it was 0.754; in experiment [9], 0.406. The “combination Emax” value in experiment [10] was determined as 0.326; in experiment [11], 0.749; in experiment [12], 0.303; in [13] it was 0.699; in the experiment with Saos-2 (Osteosarcoma) it was 0.554; in experiment [14] it was 0.632. Further, the “combination Emax” value was determined as 0.658 in [15] and 0.792 in experiment [16].
`NC1(C(=O)N[C@@H](CCO)c2ccc(Cl)cc2)CCN(c2ncnc3[nH]ccc23)CC1` [Capivasertib] + C[C@@H]1COCCN1C2=NC(=NC(=C2)C3(CC3)[S@](=N)(=O)C)C4=C5C=CNC5=NC=C4 [AZD6738] (first compound max 10 µM, 7x7, partner max 10 µM): the “combination Emax” value in experiment [1] was determined as 0.653; in experiment [2] it was 0.975; with D-392MG (Glioblastoma) it was 0.464; in experiment [3], 0.695; in the experiment on H4 (Low Grade Glioma), 0.809; in experiment [4] it was 0.725. Moreover, the “combination Emax” value turned out to be 0.765 in [5]; 0.605 in experiment [6]; 0.541 in experiment [7]; 0.739 in [8]; 0.731 with MCF7 (Breast Carcinoma); 0.445 in [9]. Also, the “combination Emax” value in [10] is 0.544; in experiment [11], 0.888; in experiment [12] it was 0.309; in [13], 0.675; in the experiment with Saos-2 (Osteosarcoma), 0.586; in experiment [14], 0.728. The “combination Emax” value worked out at 0.685 in experiment [15] and 0.838 in [16].
In the case of `NC1(C(=O)N[C@@H](CCO)c2ccc(Cl)cc2)CCN(c2ncnc3[nH]ccc23)CC1` [Capivasertib] + Cn1cnc2c(F)c(Nc3ccc(Br)cc3Cl)c(C(=O)NOCCO)cc21 [Selumetinib] (first compound max 10 µM, 7x7, partner max 10 µM), the “combination Emax” value stood at 0.762 in [1]; 0.548 in [2]; 0.484 with D-392MG (Glioblastoma); 0.48 in [3]; 0.61 in the experiment on H4 (Low Grade Glioma); 0.317 in experiment [4]. The “combination Emax” value was 0.877 in experiment [5]; 0.236 in experiment [6]; 0.685 in [7]; 0.37 in experiment [8]; 0.519 in the experiment with MCF7 (Breast Carcinoma); 0.372 in [9]. Further, the “combination Emax” value in experiment [10] was found to be 0.557; in experiment [11] it was 0.648; in [12] it was 0.46; in [13], 0.829; in the experiment with Saos-2 (Osteosarcoma) it was 0.46; in [14], 0.667. In addition, the “combination Emax” value is 0.663 in [15] and 0.446 in [16].
As to `Cc1nc(Nc2ncc(C(=O)Nc3c(C)cccc3Cl)s2)cc(N2CCN(CCO)CC2)n1` [Dasatinib] + CC(=O)Nc1cccc(-n2c(=O)n(C3CC3)c(=O)c3c(Nc4ccc(I)cc4F)n(C)c(=O)c(C)c32)c1 [Trametinib] (first compound max 2 µM, 7x7, partner max 1 µM), the “combination Emax” value in experiment [1] stood at 0.944; in experiment [2] it was 0.419; in the experiment with D-392MG (Glioblastoma), 0.627; in experiment [3], 0.781; in the experiment on H4 (Low Grade Glioma) it was 0.393; in [4], 0.657. Moreover, the “combination Emax” value in [5] was found to be 0.979; in experiment [6] it was 0.414; in [7], 0.928; in [8], 0.419; in the experiment with MCF7 (Breast Carcinoma) it was 0.112; in experiment [9], 0.249. In addition, the “combination Emax” value came out at 0.589 in experiment [10]; 0.798 in experiment [11]; 0.626 in experiment [12]; 0.764 in [13]; 0.335 in the experiment on Saos-2 (Osteosarcoma); 0.71 in [14]. In addition, the “combination Emax” value in [15] turned out to be 0.557; in [16], 0.318.
`COc1cccc2c1C(=O)c1c(O)c3c(c(O)c1C2=O)C[C@@](O)(C(=O)CO)C[C@@H]3O[C@H]1C[C@H](N)[C@H](O)[C@H](C)O1` [Doxorubicin] + Cc1cc2ncnn2cc1Nc1ncc2c(n1)n(C1CCOCC1)c(=O)n2C [AZD7648] (first compound max 1 µM, 7x7, partner max 10 µM): the “combination Emax” value turned out to be 0.654 in experiment [1]; 0.943 in experiment [2]; 0.586 in the experiment with D-392MG (Glioblastoma); 0.562 in experiment [3]; 0.818 in the experiment on H4 (Low Grade Glioma); 0.518 in experiment [4]. The “combination Emax” value amounted to 0.918 in [5]; 0.812 in experiment [6]; 0.547 in experiment [7]; 0.365 in experiment [8]; 0.623 in the experiment with MCF7 (Breast Carcinoma); 0.732 in experiment [9]. The “combination Emax” value in experiment [10] is 0.372; in experiment [11], 0.767; in experiment [12], 0.321; in [13], 0.52; in the experiment on Saos-2 (Osteosarcoma) it was 0.862; in experiment [14], 0.704. Further, the “combination Emax” value in experiment [15] amounted to 0.715; in [16] it was 0.862.

For the origin of these results see the supplement of paper PMC11061612.
